Laboratory results from paper PMC11546719, “Immune Modulatory Profile of the Pateamines PatA and Des-Methyl Des-Amino PatA” (International Journal of Molecular Sciences, 2024).

Experiments:
Human primary T cells = experiment: T cell activation with anti-CD3/anti-CD28; format: cell-based; details: for Number of activated cells (CD3+CD25+CD69+ cells) / Proliferation rate (CTV) / Surface marker expression (CD69, CD154, CD134, CD25, CD18, CD49a, CD54) / Apoptosis (zombie staining) / Cytokine release (IL-17A, IL-10, IFN-γ): activated T cells, 5 days; for Apoptosis (zombie staining): 0.25-0.5 nM; for Cytokine release (IL-17A, IL-10, IFN-γ): CBA; for Effect on the release of inflammatory markers, T Cells: summary table
Procedure: T cells were activated as previously described. Briefly, 1.75 × 10^5 T cells (stained with 0.2 µM CellTrace^TM violet (CTV) (ThermoFisher Scientific, Schwerte, Germany)) per well were pretreated with PatA (0.25, 0.5 nM), DMDA (0.25, 0.5 nM) or vehicle (DMSO) for 30 min in RPMI 1640 medium supplemented with 2 mM glutamine, 50 Units/mL IL-2, 1% penicillin/streptomycin and 10% FCS. Afterwards, they were seeded in CD3-coated 96-well plates and stimulated with 2 µg/mL CD28 for 5 days. CTV staining was performed according to the protocol of supplier.
(§1) Surface marker analysis was performed as described previously. Briefly, 1.5–2 × 10^5 cells of each sample were blocked with human FcR Blocking Reagent (15 min, 4 °C). A Zombie Aqua™ Fixable Viability Kit (1:500 dilution, BioLegend, San Diego, CA, USA) was used according to the manufactory protocol to discriminate living and dead cells. Afterwards, samples were stained with a mixture of different surface marker antibodies (15 min, 4 °C) and measured with MACSQuant® Analyzer 10 flow cytometer. For M1-/M2-MdMs anti-CD86, anti-CD14, anti-HLA-DR, anti-CD206, anti-CD80, anti-TREM2 and anti-CD163 were used. For T cells, anti-CD69, anti-CD54, anti-CD49a, anti-CD18, anti-CD134, anti-CD154, anti-CD3 and anti-CD25 were analyzed. For B cells, anti-CD27, anti-CD19 and anti-CD38 were applied. For T cell and B cell proliferation assay, freshly isolated T and B cells were stained with CTV and detected using flow cytometry. Naïve B cells were characterized as CD19^+CD27^lowCD38^med, memory B cells as CD19^+CD27^med CD38^low and plasma cells as CD27^+CD38^+ cells. M1 MdMs and M2 MdMs cell population was gated using FSC/SSC channel. T cells were gated as CD3^+CD25^+ positive cells. The geometric mean of the fluorescent intensity was calculated using FlowJo software v10 (Treestar, Ashland, […], USA). Fold induction of surface marker expression was calculated using the DMSO-treated cells as the control.
(§2) For determination of cytokine concentrations in the supernatant of humane immune cells, cytometric bead array (BD Biosciences, Heidelberg, Germany) for IL-10, IL-17, IL-8, IL-6, IFN-γ and CCL2 was used. For the detection of CCL18, CCL17, IgG, IgA and PGE2, an ELISA was performed. The cytometric bead arrays and the ELISAs were performed according to the protocol of the supplier.

M2 MdMs = experiment: Energy metabolism (Seahorse OCR/ECAR) in M2 MdMs; format: cell-based, human; details: 24 h, 0.5-5 nM
Procedure: (§3) The determination of the energy metabolism was performed as described previously. Briefly, for the analysis of the extracellular acidification rate (ECAR) and the oxygen consumption rate (OCR) for human B cells, Tcells, M1 MdMs and M2 MdMs, the Seahorse XFe96 FluxPak (Agilent, Waldbronn, Germany) was used as recommended by the manufacturer. MdMs were polarized to M1 or M2 MdMs in the presence of PatA (0.5, 2.5, 5 nM), DMDA (0.5, 2.5, 5 nM) or vehicle (DMSO) for 48 h or 24 h, respectively. T cells were activated in the presence of PatA (0.25, 0.5 nM), DMDA (0.25, 0.5 nM), silvestrol or DMSO. B cells were activated in the presence of PatA (0.25, 0.5 nM), DMDA (0.25, 0.5 nM), silvestrol (5 nM) or rapamycin (10 ng/mL positive control). Cells were washed with Seahorse XF RPMI medium pH 7.4 (Agilent, Waldbronn, Germany) and OCR and ECAR were measured as octuplicates for a period of 160 min using the Seahorse XFe96 Analyzer (Agilent, Waldbronn, Germany) and analyzed by Wave Software 2.6.3.8 (Agilent, Waldbronn, Germany). The relative values were calculated by relating the OCR or ECAR values obtained after 50 min to the values of the vehicle control (not stimulated).

Human primary B cells = experiment: B cell activation with IL-21, sCD40L, CpG and anti-IgM; format: cell-based; details: for B cell activation (formation of plasma cells, proliferation, release of IgGs) / Cell viability (zombie staining): activated B cells, 5 days; for Effect on the release of inflammatory markers, B Cells: summary table
Procedure: B cells were activated as described by Khoenkhoen et al.. […].
as §1, with “[…].” for “A Zombie Aqua™ Fixable Viability Kit (1:500 dilution, BioLegend, San Diego, CA, USA) was used according to the manufactory protocol to discriminate living and dead cells.”
as §2

B cells = experiment: Energy metabolism (Seahorse OCR/ECAR) in B cells; format: cell-based, human; details: 5 days, PatA, DMDA 0.25-0.5 nM, silvestrol 5 nM, rapamycin 10 ng/mL
Procedure: as §3

SMILES | Number of activated cells (CD3+CD25+CD69+ cells) (Human primary T cells) | Proliferation rate (CTV) (Human primary T cells) | Surface marker expression (CD69, CD154, CD134, CD25, CD18, CD49a, CD54) (Human primary T cells) | Apoptosis (zombie staining) (Human primary T cells) | Cytokine release (IL-17A, IL-10, IFN-γ) (Human primary T cells) | Effect on the release of inflammatory markers, T Cells (Human primary T cells) | Energy metabolism: glycolysis (ECAR) and oxidative phosphorylation (OCR) (M2 MdMs) | B cell activation (formation of plasma cells, proliferation, release of IgGs) (Human primary B cells) | Cell viability (zombie staining) (Human primary B cells) | Effect on the release of inflammatory markers, B Cells (Human primary B cells) | Energy metabolism: glycolysis (ECAR) and oxidative phosphorylation (OCR) (B cells) | B cell activation (formation of plasma cells, proliferation, release of IgGs) (Human primary B cells; 0.5 nM)
CC(/C=C/C(C)=C/[C@@H]1Cc2nc(cs2)CCCCC(=O)O[C@@H](C)C/C(C)=C/C=C\C(=O)O1)=C\CN(C)C [DMDA, des-methyl des-amino pateamine A] | did not influence the number of activated cells | Neither had any effects | Neither had any effects | showed no apoptotic effects | Neither had any effects | No effect | had no effect on energy consumption | did not prevent B cell activation | did not reduce cell viability | No effect | induced only glycolysis | –
CC(/C=C/C(C)=C/[C@@H]1Cc2nc(cs2)[C@@H](C)C[C@@H](N)CC(=O)O[C@@H](C)C/C(C)=C/C=C\C(=O)O1)=C\CN(C)C [PatA, pateamine A] | did not influence the number of activated cells | Neither had any effects | Neither had any effects | showed no apoptotic effects | Neither had any effects | No effect | reduced glycolysis and oxidative phosphorylation | – | did not reduce cell viability | IgA↓, IgG↓ | induced oxidative phosphorylation and glycolysis | showed similar effects to those of rapamycin
